Results: patent publication US20190201578A1, “Biomaterial Implant” (The Johns Hopkins University, priority 2017, published 2019)

Tests used:
[1] = system: rat cornea wound; assay: cornea wound electric current and ion flux measured with vibrating probe; conditions: for cornea wound electric signal: 10 mM
Description: In order to understand corneal wound healing, the spatiotemporal dynamics of rat cornea wound electric currents and ion flux using a vibrating probe were characterized. In particular, measurements of deeper wounds of approximately 100 microns in depth, penetrating the stroma, were analyzed. For both shallow and deep wounds, electric current and ion flux were maximized at the wound edge, minimized at the wound center, and reduced to normal (unwounded) values at a small distance outside the wound. Wound electric current was outward (i.e., outward transient outward flux of potassium which diminished rapidly and therefore appeared to be leakage). Small fluxes of calcium and sodium were also observed. The main ion flux appeared to be a large influx of chloride ions at the wound edge. Time lapse measurements of electric current in the hours after wounding indicate that the wound electric signal was long-lasting and appears to be actively-regulated. The wound electric signal increased rapidly until approximately 40 minutes after wounding and was maintained at a high level for several hours. FIGS. 9 and 10 show time lapse data for both a shallow (normal epithelial) wound and a deep (stromal) wound. In this regard, electric signals for a shallow depth wound and a deep wound were compared.
Furthermore, the epithelial wounds were manually made using a biopsy punch. To replicate a more traumatic cornea wound that penetrates both the epithelium and stroma, a Nidek EC-5000 excimer laser was used. The laser settings to obtain circular wounds were 2 mm in diameter and approximately 100 μm deep. We confirmed wound depth using optical coherence tomography (OCT). […] The laser application was performed by first chilling eyes in a saline ice bath prior to wounding, and then applying the laser in 10 second bursts, with 5 second rest in between to minimize laser damage outside the wound. […]
Wounds 3.5 mm in diameter that normally took 48 hours or more to completely heal were healed in 30 hours in the presence of these therapeutics. To ensure that the aminophylline has the same effect on deep wounds as shallow epithelial wounds, wound electric fields were measured using the vibrating probe with and without the presence of 1 and 10 mM aminophylline. […]
The effects of two distinct rehydrated collagen membranes (with a nominal thickness of 100 μm) on cornea wound electric signal were characterized. […] As the probe was moved away from the source of electric signal, the current detected fell exponentially.
The effect of physical presence of collagen membrane and probe distance from wound edge on the electric signal was tested. The probe was placed in measuring position as close as possible to the wound edge with the collagen membrane, and the electric signal was recorded. […]

[2] = system: rat cornea wound; assay: cornea wound healing in the presence of therapeutics; conditions: for time to heal: wounds 3.5 mm in diameter that normally took 48 hours or more
Description: Furthermore, the epithelial wounds were manually made using a biopsy punch. To replicate a more traumatic cornea wound that penetrates both the epithelium and stroma, a Nidek EC-5000 excimer laser was used. The laser settings to obtain circular wounds were 2 mm in diameter and approximately 100 μm deep. We confirmed wound depth using optical coherence tomography (OCT). […] The laser application was performed by first chilling eyes in a saline ice bath prior to wounding, and then applying the laser in 10 second bursts, with 5 second rest in between to minimize laser damage outside the wound. […] The dynamic time course of the electric signal change in the hours after wounding was also similar to that of shallower wounds (see FIG. 9). Normal epithelial wounds 2 mm in diameter heal almost completely in 48 hours. Deep laser wounds took longer to heal than shallow epithelial wounds, but did heal 100% by day 8 (see FIG. 10).
Wounds 3.5 mm in diameter that normally took 48 hours or more to completely heal were healed in 30 hours in the presence of these therapeutics. To ensure that the aminophylline has the same effect on deep wounds as shallow epithelial wounds, wound electric fields were measured using the vibrating probe with and without the presence of 1 and 10 mM aminophylline. FIG. 11 illustrates the presence of aminophylline in the wound.
FIG. 12 illustrates wound healing of a deep wound (100 μm) without and with the presence of 1 mM aminophylline as function of time. In this regard, at 500, deep wound healing with and without the presence of aminophylline are shown. At 520, an OCT image of the control wound is shown. At 540, an OCT image with the presence of aminophylline in the wound is shown.
Furthermore, FIG. 13 illustrates the percentage of wound healing as a function of time for corneas treated with the bioelectric modulator aminophylline (1 mM).

[3] = cited from earlier work

Compound | cornea wound electric signal [1] | cornea wound healing [2] | time to heal [2] [h] | chloride flux at the wound [1] | wound electric field ([1]; deep wounds, 1 and 10 mM, FIG. 11) | wound healing of a deep wound (OCT) ([2]; deep wound 100 μm, 1 mM, FIG. 12) | log partition (log P) coefficient value [3]
O=C1O[C@H]([C@@H](O)CO)C(O)=C1O [ascorbic acid] | significantly increase | significantly enhanced | 30 | – | – | – | –
Cn1c(=O)c2[nH]cnc2n(C)c1=O [aminophylline] | significantly increase | significantly enhanced | 30 | significantly increases | increase in the wound electric field | faster than a control | −3.03
